Source: patent publication US12729368B2, “Methods and compositions for generating oligodendrocyte progenitor cells” (Trailhead Biosystems Inc., priority 2022, dated 2026)
Where “and” joins values, the source holds several entries; their conditions need not be identical. Equal values may be shown once.

Key:
Type in all cases: cell-based, human
[1] = system: OPCs; test: HD-DoE 12-factor model for stage 4 on OPCs, 6 days in culture
Experimental: To engineer the recipe of stage 4 of differentiation, 48 or 96 different combinations of effectors generated using Design-of-Experiments compression through D-optimality were robotically prepared. The effector combinations were prepared in a basal media and were subsequently added to the cells, which were treated with the stage 1, stage 2 and stage 3 differentiation media as described in the earlier examples to generate OPCs. […] Solutions within the tested space could then be explored to address desirability. […] Benarroch (2009) Neurology 72:1779-1785; Shi et al. (2019) Exp Ther Med, 18:1258-1266).

[2] = system: OPCs; test: HD-DoE 8-factor model for stage 4 on OPCs; details: optimized for maximal expression of CNP at 1339
Experimental: To engineer the recipe of stage 4 of differentiation, 48 or 96 different combinations of effectors generated using Design-of-Experiments compression through D-optimality were robotically prepared. The effector combinations were prepared in a basal media and were subsequently added to the cells, which were treated with the stage 1, stage 2 and stage 3 differentiation media as described in the earlier examples to generate OPCs. […] Solutions within the tested space could then be explored to address desirability.

[3] = system: cells cultured in stage 1 and stage 2 differentiation media; test: HD-DoE 8-factor model for stage 3 (version 2)
Experimental: To further differentiate the cells to an oligodendrocyte progenitor identity, additional HD-DoE experiments were performed on the cells that were cultured in stage 1 and stage 2 differentiation media. After 3 days, gene expression of cells in different combinatorial conditions were investigated. At this time, we focused on maximal expression of signature oligodendrocyte progenitor genes such as SOX10, OLIG1 and PDGFRa (Goldman and Kuypers (2015) Development 142:3983-95: Marques et al. (2016) Science 352:1326-1329). In one 8-factor model, individual and combinatorial effects of TTNPB (an RA agonist), CHIR99021, FGF-2, IGF-1, AGN193109, Purmorphamine, MHY1485 (a mTOR pathway agonist) and SC79 (an AKT pathway agonist) were tested to guide the cells toward a SOX10/PDGFRa positive population. […] CHIR99021 was also positive, with a factor contribution of 8.1 (FIG. 33).
Other positive factors were IGF-1, with a factor contribution of 11.2, CHIR99021, with a factor contribution of 8.5 and TTNPB, with a factor contribution below 1 (FIG. 34).
To confirm the impact of TTNPB, FGF-2 and IGF-1 on a bigger scale, we investigated the expression profile of a larger group of genes defining late oligodendrocyte progenitor population, such as ID2, CSPG4, FYN, SOX8, PLP1 and BCAN (Perlman et al. (2020). Glia 68:1291-1303; Goldman and Kuypers (2015) Development 142:3983-95; van Tilborg et al. (2018) Glia 66:221-238) and neuronal genes such as NEUROD1, NEUROG1 and NEUROG2 in presence of IGF-1, FGF-2 or TTNPB.

[4] = system: cells cultured in stage 1 and stage 2 differentiation media; test: Two further HD-DoE models optimized for SOX10 (IGF-1, FGF-2, AGN193109)
Excerpt: According to literature, proteins such as FGF-2, IGF-1, PDGF-AA and NT-3 play an important role in oligodendrocyte differentiation (Goldman and Kuypers (2015) Development 142:3983-95). In the first model, FGF-2 had positive regulatory impact only on the expression level of SOX10 and IGF-1 on PDGFRa. Therefore, to further understand the impact of IGF-1 and FGF-2 on differentiation of cells and confirm their positive role, we included these factors in two other models and optimized the models for maximum expression of SOX10. This gene is one of the main transcription factors of oligodendrocytes, along with OLIG2 and NKX2-2 that has shown the potential to commit the stem cells to oligodendrocytes in reprogramming efforts (Wang et al, (2014) Proc Natl Arad Sri USA 111:E2885-94; García-León et al. (2018) Stem Cell Reports 10:655-672).

[5] = system: pre-OPCs; test: HD-DoE 12-factor model for stage 2 (version 1), 3 days on stage 1 pre-OPCs; details: optimized for maximum expression of OLIG2 at 1841.6; negative impact
Excerpt: To engineer the recipe of stage 2 of differentiation, cells were first cultured in the stage 1 media described in Example 1 and then treated with combinations of 8 or 12 factors for 3 days and the gene expression of cells in each condition was modeled. At this point, due to short duration of culture (only six days in vitro), we decided to focus on maximal expression of OLIG2 and maintenance of high expression of NKX2-2, while initiating expression of SOX10, OLIG1 and PDGFRa, to guide the cells towards oligodendrocyte fate (Emery and Lu (2015). Cold Spring Harb Perspect Biol. 7:a020461; Perlman et al. (2020). Glia 68:1291-1303; Goldman and. Kuypers (2015) Development 142:3983-95).
In one 12-factor model, the individual and combinatorial impact of SUN 11602 an agonist for FGF signaling pathway, FGF2, Activin A an activator of one of the receptors of TGF-b superfamily, A 8301, an inhibitor of TGF-b pathway, CHIR99021 a WNT activator, AGN193109 a RA antagonist, MK2206 an AKT inhibitor, Purmorphamine an agonist of SHH signaling pathway, AZD3147 an antagonist of mTOR pathway, MHY1485 an agonist of mTOR pathway, SC79 an agonist of AKT pathway and G06983 an inhibitor of PKC pathway, were tested.
Dynamic profile analysis was used to assess the expression levels of other genes of interests, such as NKX2-2, OLIG1 and SOX10, while the model is maximized for OLIG2. Activin A and SUN 11602 were brought down to zero due to their very low factor contribution. We observed when the model is optimized, the expression level of NKX2-2 is at 3000, PDGFRa at 1000, OLIG1 at 80 and SOX10 at 15 (FIG. 12).

[6] = system: pre-OPCs; test: HD-DoE second 12-factor model for stage 2 (Purmorphamine with TTNPB, Biotin, Insulin etc.); details: optimized for OLIG2; input for minimal expression (negative)
Experimental: To gain more information about the effect of Purmorphamine on differentiation of pre-OPCs to a more committed cell population, we tested this factor in two other models. In a 12-factor model, we included Purmorphamine, FGF2, AGN193109 and CHIR99021 along with 8 new inputs including TTNPB, Biotin, Insulin, propionate, DBZ, Yhhu3792, LDN193189 and Y-27632. […] In another 12-factor model, Purmorphamine was tested along with A 8301, CHIR99021, Dexamethasone, T3+T4, PD0325901, ZM336372, DBZ, BMP7, PD173074, SANT-1 and PDGF-AA.

[7] = system: pre-OPCs; test: HD-DoE 8-factor model for stage 2 (version 2) on pre-OPCs; details: negative impact
Experimental: To engineer the recipe of stage 2 of differentiation, cells were first cultured in the stage 1 media described in Example 1, then, 48 or 96 different combinations of effectors generated using Design-of-Experiments compression through D-optimality were robotically prepared. The effector combinations were prepared in a basal media and were subsequently added to the cells, which were then allowed to differentiate. Three days later RNA extraction was performed, and gene expression was obtained using quantitative PCR analysis. The data was normalized and modeled using partial least squares regression analysis to the effector design, resulting in the generation of gene-specific models, which after model tuning for maximal predictive power, provided explanation of the effectors ability to control the expression of individual genes, combinatorically, and individually. Solutions within the tested space could then be explored to address desirability.
At this point, due to short duration of culture (only six days in vitro) we decided to focus on maximal expression of OLIG2 and maintenance of high expression of NKX2-2, while initiating expression of SOX10, OLIG1 and PDGFRa, to guide the cells towards oligodendrocyte fate (Emery and Lu (2015). Cold Spring Harb Perspect Biol. 7:a020461; Perlman et al. (2020). Glia 68:1291-1303; Goldman and Kuypers (2015) Development 142:3983-95). In one 8-factor model, the individual and combinatorial impact of CHIR99021 (a WNT pathway agonist), AGN193109 (an RA pathway antagonist), FGF-2 (an FGFR agonist), Purmorphamine (an SHH pathway agonist), AICAR (an AMPK agonist), GW3965 (an LXR pathway agonist), GW590735 (a PPAR-a agonist) and AZD3147 (a mTOR antagonist) on further differentiation of cells were tested.

[8] = optimized for CNP at 1790, negative impact
[9] = optimized for CNP at 1790, positive

With `N[C@@H](Cc1cc(I)c(Oc2ccc(O)c(I)c2)c(I)c1)C(=O)O` [T3] the “effect on other OL genes and neuronal gene NeuroG1” value ([1]; factor effect plots) was “can upregulate other OL genes such as PLP1, PTGDS, KLK6 and MBP while downregulating neuronal gene NeuroG1”, the factor contribution [1, 8] was 1.2 and the factor contribution ([2]; positive) was 18.

In the case of `O=C(O)CCCC[C@@H]1SC[C@@H]2NC(=O)N[C@@H]21` [Biotin], the factor contribution [1, 8] is reported as 16 and 16.5 and the factor contribution ([2]; negative impact) is reported as 12.

Insulin: insulin receptor agonist was tested, and the factor contribution [1, 9] was 3, the factor contribution ([1]; optimized for PLP1 at 3600, positive) was 13 and 13.2 and the factor contribution ([2]; positive) was 10.

“IGF-1: IGFR activator (insulin-like growth factor 1)” was tested, and the factor contribution [1, 9] was 5, the “effect on late OPC genes and neuronal genes” value ([3]; factor plots vs concentration) was “expression levels of OPC genes increased as the concentration of IGF-1 increased, while neuronal genes decreased” and the factor contribution ([3]; optimized for maximum expression of PDGFRa at 853.4, positive) was 11.2. The “impact on the expression level of SOX10” value ([4]; two other models optimized for SOX10) was “positive impact” and the factor contribution ([2]; positive) was “below 1”.

`Cc1ccc(C2=CCC(C)(C)c3ccc(C#Cc4ccc(C(=O)O)cc4)cc32)cc1` [AGN193109] showed a factor contribution [5] of 23.2, a factor contribution [6] of 18.3 and a factor contribution ([4]; increasing level of SOX10, positive effect) of 16. For the same compound, the factor contribution ([7]; optimized for maximum expression of OLIG1 at 454.7) was 25.3 and the factor contribution ([7]; optimized for maximum expression of OLIG2 at 3325) was 25.8.
